Values quoted from earlier work, collected in patent publication US9260760B2, “Method for determining complete response to anticancer therapy” (Board of Regents, The University of Texas System, priority 2012, dated 2016).
Where two headings read alike, the source gives them in different places.

Columns and labels:
[1] = cited from earlier work
[2] = system: metastatic colorectal cancer; conditions: cited from earlier work

Structure (SMILES): CCCCCOC(=O)Nc1nc(=O)n([C@@H]2O[C@H](C)[C@@H](O)[C@H]2O)cc1F [Capecitabine, capecitabine]
- grade 3 HFS ([1]; capecitabine at 1250 mg/m2/d): ≤ 17%
- patients with HFS onset within six weeks ([1]; capecitabine at 1250 mg/m2/d): 93%
- patients with most severe HFS episode within six weeks ([1]; capecitabine at 1250 mg/m2/d): 67.9%
- HFS ([1]; capecitabine starting at 750-1000 mg/m2/d bid with irinotecan (Patt et al., 2004)): 35%
- incidence of grade ⅔ HFS ([1]; earlier study, capecitabine 1000 mg/m2/d bid (Lin et al., 2002)): 34.2%
- Complete response (%) ([2]; first-line therapy): 3%
- Median OS (months) ([2]; first-line therapy): 12.4-13.2 months
- Median PFS (months) ([2]; first-line therapy): 4.2 months
- Response rate (%) ([2]; first-line therapy): 19-25%
- Stable disease (%) ([2]; first-line therapy): 50%
- time at which half of the patients experienced tumor progression ([2]; monotherapy capecitabine): 2-4 months
- Complete response (%) ([2]; second-line therapy): 0%
- Median OS (months) ([2]; second-line therapy): 12.2 months
- Median PFS (months) ([2]; second-line therapy): 2.1 months
- Response rate (%) ([2]; second-line therapy): 0%
- Stable disease (%) ([2]; second-line therapy): 50%
